Laboratory results published in patent US8043422B2, “Combinations of phenylpyrroles and pyrion compounds” (Janssen Pharmaceutica, NV, priority 2008, dated 2011).
Read-outs that look alike come from different tables or passages of the source.

Key:
Format in all cases: cell-based
[1] = system: Staphylococcus aureus (g+) LMG 8064; test: Poison Plate Assay, bacteria; settings: for MIC: LMG8064, 120 h, read-out: MIC-values (minimum inhibitory concentration) in ppm; for MIC-values (minimum inhibitory concentration) in ppm: fludioxonil (I-a) with sodium pyrithione (II-h)
Protocol: (§1) • Test models: • Fungi: to each well of a 24-well microtiter plate, 1000 μl of a rich (Potato Dextrose Agar, PDA: 4 g potato infusion, 20 g bacto dextrose and 15 g bacto agar in 1 liter deionised water) or poor (Glucose Agar, GA: 10 g glucose, 1.5 g K2HPO4, 2 g KH2PO4, 1 g (NH4)2SO4, 0.5 g MgSO4 and 12.5 g agar in 1 liter deionised water) medium containing the appropriate combination of the test compounds in one of the concentrations of a dose series is added. The nutrient medium is inoculated with the test fungi by adding a spore/mycelium suspension (10 μl) or a small piece of agar from the margin of an actively growing colony and incubated under dark at 27° C. with 70% relative humidity. The growth of the fungi is evaluated after two weeks. • Glucose agar was used in some experiments instead of PDA (Potato Dextrose Agar), as an alternative, poorer medium for the fungi, in order to increase the chances of detecting activity in compounds like fludioxonil, whose mode of action could be partly circumvented by fungi on a richer medium (Copping, L. and Hewitt, G. (1998) “Chemistry and mode of action of crop protection agents.” The Royal Society of Chemistry, Cambridge. 145 pp.). • Bacteria: to each well of a 24-well microtiter plate, 1000 μL Tryptose Agar (TA, 20 g bacto tryptose agar, 5 g sodium chloride, 1 g bacto dextrose and 15 g agar in 1 liter deionised water), containing the test compounds in one of the concentrations of a dose series is added. The nutrient medium is inoculated by adding 10 μl of an actively growing liquid culture of the test bacteria in tryptose broth (without agar), and incubated under dark at 27° C. with 70% relative humidity. Growth is evaluated after five days. • Concentrations: • MIC values for single compounds were collected from previous screening experiments. These MIC values were used as a guide in determining of the most suitable test dose ranges. • Synergy experiment with bispyrithione: • 25.00-18.75-14.06-10.55-7.91-5.93-4.45-3.34-2.50-1.88-1.41-1.06 ppm • Synergy experiment with sodium pyrithione: • 10.00-7.50-5.63-4.22-3.16-2.37-1.78-1.33-1.00-0.75-0.56-0.42 ppm Test combinations:
(§2) (2000) “Measuring synergy” cosmetics & Toiletries 115(11): 59-62; and Lada, A., A. N. Petrocci, H. A. Green, and J. J. Merianos (1977) “Antimicrobial composition” U.S. Pat. No. 4,061,750, 3 pp.):
(§3) [formula] wherein: • QA is the concentration of compound A in ppm, acting alone, which produced an end point (e.g. MIC), • Qa is the concentration of compound A in ppm, in the mixture, which produced an end point (e.g. MIC), • QB is the concentration of compound B in ppm, acting alone, which produced an end point (e.g. MIC), • Qb is the concentration of compound B in ppm, in the mixture, which produced an end point (e.g. MIC). […]

[2] = system: Coriolus versicolor CTB863A; test: Poison Plate Assay, fungi; settings: Trametes versicolor, 336 h, read-out: MIC-values (minimum inhibitory concentration) in ppm
Protocol: as §1, §2, §3

[3] = system: Ulocladium atrum IMI214699a; test: Poison Plate Assay, fungi
Protocol: as §1, §2, §3

[4] = ppm total active ingredient, Tryptose Agar, 27° C., growth evaluated after five days

Question: For `N#Cc1c[nH]cc1-c1cccc2c1OC(F)(F)O2` [fludioxonil (I-a), 4-(2,2-difluoro-1,3-benzodioxol-4-yl)-1H-pyrrole-3-carbonitrile], which MIC [1] is on record?
Answer: 40 µg/mL

Question: And the “MIC-values (minimum inhibitory concentration) in ppm” value [1, 4]?
Answer: 40.00 ppm

Question: And the MIC [2]?
Answer: 40 µg/mL

Question: And the MIC ([3]; Alternaria atra, IMI214699A, 336 h, read-out: MIC-values (minimum inhibitory concentration) in ppm)?
Answer: 100 µg/mL

Question: With `[O-][n+]1ccccc1SSc1cccc[n+]1[O-]` [pyrion disulfide (II-g), pyrion disulfide] as the compound, how does the MIC ([1]; fludioxonil (I-a) with pyrion disulfide (II-g), ppm total active ingredient, Tryptose Agar, 27° C., growth evaluated after five days) read?
Answer: 4.45 µg/mL

Question: And the MIC ([2]; Coriolus versicolor, fludioxonil (I-a) with pyrion disulfide (II-g), ppm total active ingredient, 27° C., growth evaluated after two weeks)?
Answer: 18.8 µg/mL

Question: For `[Na+].[O-][n+]1ccccc1[S-]` [sodium pyrithione (II-h), sodium pyrithione], which “MIC-values (minimum inhibitory concentration) in ppm” value [1, 4] is on record?
Answer: 4.22 ppm

Question: And the “MIC-values (minimum inhibitory concentration) in ppm” value ([3]; Ulocladium atrum, fludioxonil (I-a) with sodium pyrithione (II-h), ppm total active ingredient, 27° C., growth evaluated after two weeks)?
Answer: 2.37 ppm
